Source: patent publication US20070172529A1, “Herbal formulation for the treatment of piles” (COUNCIL OF SCIENTIFIC AND INDUSTRIAL RESEARCH, priority 2004, published 2007)
Marks after values point to notes of the source that are not given here.

Legend:
[1] = tested on: λ carrageenin induced edema; assay: λ carrageenin induced paw edema in rats; type: in vivo, rat
Experimental: Carrageenin induced paw edema: Rats were injected with 0.1 ml of 1% λ carrageenin (St.-Louis, Mo.) into the subplantar side of the left hind paw. The paw was marked with ink at the level of the lateral malleolus and dipped in perspex cell up to this mark. The paw volume was measured with an Ugo Basile Plethysmometer (No: 61402) (7140 Comerio-varese, Italy) immediately and 3 h after injecting the λ carrageenin suspension. […] Significant reductions in the paw volume compared to vehicle treated control animals were considered as anti-inflammatory response. Percentage inhibition of oedema was calculated as follows: % Inhibition=(1−VT/VC)×100
VT=Paw volume in drug treated rats, VC=Paw volume in control group of rats.

Bacillus Substilis = settings: against Bacillus Substilis; cited from earlier work
interleukin-1 production = settings: Chem. Pharm. Bull. 1992, 40,2041; cited from earlier work
force-induced pain = assay: Analgesy-meter force-induced pain in rats; type: in vivo, rat; settings: mean ± SEM, six rats
Experimental: Analgesy-meter induced pain: The analgesic effect of the powder was tested in rat of either sex, using an Ugo Basile Analgesy meter (No. 32725) (21025 Comerio-[…], Italy). This method involves the application of force to the paw of the rat using the Analgesy-meter, which exerts a force that increases at a constant rate. The rat was gently placed between the plinth and plunger. The instrument was switched on and a constant motor rate was used to drive the plunger on to the paw of the rat. When the rat struggles, the instrument is switched off and the force at which the animal felt pain was read on a scale calibrated in grams ×10 by a pointers. The pre-treatment and the after treatment weight causing pain was determined for each rat. […]

Compound: COc1ccc2c(c1)c(CC(=O)O)c(C)n2C(=O)c1ccc(Cl)cc1 [Indomethacin]
- Paw volume (ml) at 3h λ carrageenin ([1]; 100 mg/kg, mean ± SEM, six rats): 0.15 ± 0.02 mL
- inhibition at 100 mg/kg ([1]; Rattus norvegicus, 3 h after λ carrageenin, vs control): 84.7%

Compound: C[C@@H]1O[C@@H](Oc2ccc(CN=C=S)cc2)[C@H](O)[C@H](O)[C@H]1O [4-(α-L Rhamnosyloxy benzylisothiocynate]
- Antibacterial activity (Bacillus Substilis): exhibited antibacterial activity

Compound: Pongapipnone A
- Inhibition of interleukin-1 production (interleukin-1 production): inhibited interleukin-1 production

Compound: CC(C)Cc1ccc(C(C)C(=O)O)cc1 (stereo not drawn) [Ibuprofen]
- Weight causing pain (g) After Administration (force-induced pain; 100 mg/kg): 161.1 ± 7.9^b g
- Weight causing pain (g) Before Administration (force-induced pain; pre-treatment value of 100 mg/kg group): 84.7 ± 5.7 g
